Data: the supplement of paper PMC11061612

Legend:
Olaparib = compound: O=C(c1cc(Cc2n[nH]c(=O)c3ccccc23)ccc1F)N1CCN(C(=O)C2CC2)CC1 [Olaparib]; details: max 10 µM
How it was run: (§1)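 Following 24 hours at 37°C and 5% CO2, cancer cell lines in 1536-well plates with 7.5 μl DMEM/F12 or RPMI and 10% FBS were dosed for 72 hours, final DMSO typically being 0.2%. CellTiter-Glo 2.0 luminescence, scaled between blank-well and DMSO-well means, gave the viability readout. Dose responses were fitted to a two-parameter logistic curve with a non-linear mixed effects model, and the single-agent IC50 was derived from this fit.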

Selumetinib = compound: Cn1cnc2c(F)c(Nc3ccc(Br)cc3Cl)c(C(=O)NOCCO)cc21 [Selumetinib]; details: max 10 µM
How it was run: as §1

AZD2811 = compound: CCN(CCO)CCCOc1ccc2c(Nc3cc(CC(=O)Nc4cccc(F)c4)[nH]n3)ncnc2c1 [AZD2811]; details: max 1 µM
How it was run: as §1

SG3199 = compound: CC1=CN2[C@@H](C1)C=NC3=CC(=C(C=C3C2=O)OC)OCCCCCOC4=C(C=C5C(=C4)N=C[C@@H]6CC(=CN6C5=O)C)OC [SG3199]; details: max 0.001 µM
How it was run: as §1

Trametinib = compound: CC(=O)Nc1cccc(-n2c(=O)n(C3CC3)c(=O)c3c(Nc4ccc(I)cc4F)n(C)c(=O)c(C)c32)c1 [Trametinib]; details: max 1 µM
How it was run: as §1

Palbociclib = compound: CC(=O)c1c(C)c2cnc(Nc3ccc(N4CCNCC4)cn3)nc2n(C2CCCC2)c1=O [Palbociclib]; details: max 10 µM
How it was run: as §1

Doxorubicin = compound: COc1cccc2c1C(=O)c1c(O)c3c(c(O)c1C2=O)C[C@@](O)(C(=O)CO)C[C@@H]3O[C@H]1C[C@H](N)[C@H](O)[C@H](C)O1 [Doxorubicin]; details: max 1 µM
How it was run: as §1

Taselisib = compound: Cc1nc(-c2cn3c(n2)-c2ccc(-c4cnn(C(C)(C)C(N)=O)c4)cc2OCC3)n(C(C)C)n1 [Taselisib]; details: max 10 µM
How it was run: as §1

AZD6738 = compound: C[C@@H]1COCCN1C2=NC(=NC(=C2)C3(CC3)[S@](=N)(=O)C)C4=C5C=CNC5=NC=C4 [AZD6738]; details: max 10 µM
How it was run: as §1

AZD0156 = compound: CN(C)CCCOc1ccc(-c2ccc3ncc4c(c3c2)n(C2CCOCC2)c(=O)n4C)cn1 [AZD0156]; details: max 3 µM
How it was run: as §1

Prexasertib = compound: COc1cccc(OCCCN)c1-c1cc(Nc2cnc(C#N)cn2)n[nH]1 [Prexasertib]; details: max 1 µM
How it was run: as §1

Venetoclax = compound: CC1(C)CCC(CN2CCN(c3ccc(C(=O)NS(=O)(=O)c4ccc(NCC5CCOCC5)c([N+](=O)[O-])c4)c(Oc4cnc5[nH]ccc5c4)c3)CC2)=C(c2ccc(Cl)cc2)C1 [Venetoclax]; details: max 1 µM
How it was run: as §1

AZD4320 = compound: CN(CC[C@H](CSC1=CC=CC=C1)NC2=C(C=C(C=C2)S(=O)(=O)NC(=O)C3=CC=C(C=C3)N4CCC(CC4)[C@H](C5=CC=CC=C5C6=CC=C(C=C6)Cl)O)S(=O)(=O)C(F)(F)F)CCO [AZD4320]; details: max 1 µM
How it was run: as §1

AZD5991 = compound: Cc1c2c(nn1C)CSCc1cc(n(C)n1)CSc1cc(c3ccccc3c1)OCCCc1c(C(=O)O)n(C)c3c-2c(Cl)ccc13 [AZD5991]; details: max 1 µM
How it was run: as §1

MK-2206 = compound: NC1(c2ccc(-c3nc4ccn5c(=O)[nH]nc5c4cc3-c3ccccc3)cc2)CCC1 [MK-2206]; details: max 10 µM
How it was run: as §1

SN-38 = compound: CCc1c2c(nc3ccc(O)cc13)-c1cc3c(c(=O)n1C2)COC(=O)[C@]3(O)CC [SN-38]; details: max 0.3 µM
How it was run: as §1

AZD1775 = compound: C=CCn1c(=O)c2cnc(Nc3ccc(N4CCN(C)CC4)cc3)nc2n1-c1cccc(C(C)(C)O)n1 [AZD1775]; details: max 3 µM
How it was run: as §1

Dasatinib = compound: CC1=C(C(=CC=C1)Cl)NC(=O)C2=CN=C(S2)NC3=CC(=NC(=N3)C)N4CCN(CC4)CCO [Dasatinib]; details: max 2 µM
How it was run: as §1

Alisertib = compound: COc1cc(Nc2ncc3c(n2)-c2ccc(Cl)cc2C(c2c(F)cccc2OC)=NC3)ccc1C(=O)O [Alisertib]; details: max 10 µM
How it was run: as §1

AZD1390 = compound: CC(C)n1c(=O)n(C)c2cnc3cc(F)c(-c4ccc(OCCCN5CCCCC5)nc4)cc3c21 [AZD1390]; details: max 0.3 µM
How it was run: as §1

Crizotinib = compound: C[C@@H](Oc1cc(-c2cnn(C3CCNCC3)c2)cnc1N)c1c(Cl)ccc(F)c1Cl [Crizotinib]; details: max 10 µM
How it was run: as §1

AZD5153 = compound: COc1nnc2ccc(N3CCC(c4ccc(OCCN5CCN(C)C(=O)[C@H]5C)cc4)CC3)nn12 [AZD5153]; details: max 1 µM
How it was run: as §1

Capivasertib = compound: C1CN(CCC1(C(=O)N[C@@H](CCO)C2=CC=C(C=C2)Cl)N)C3=NC=NC4=C3C=CN4 [Capivasertib]; details: max 10 µM
How it was run: as §1

Savolitinib = compound: C[C@@H](c1ccc2nccn2c1)n1nnc2ncc(-c3cnn(C)c3)nc21 [Savolitinib]; details: max 1 µM
How it was run: as §1

AZD7648 = compound: Cc1cc2ncnn2cc1Nc1ncc2c(n1)n(C1CCOCC1)c(=O)n2C [AZD7648]; details: max 10 µM
How it was run: as §1

AZD8186 = compound: C[C@@H](Nc1cc(F)cc(F)c1)c1cc(C(=O)N(C)C)cc2c(=O)cc(N3CCOCC3)oc12 [AZD8186]; details: max 3 µM
How it was run: as §1

Gefitinib = compound: COc1cc2ncnc(Nc3ccc(F)c(Cl)c3)c2cc1OCCCN1CCOCC1 [Gefitinib]; details: max 10 µM
How it was run: as §1

Lapatinib = compound: CS(=O)(=O)CCNCc1ccc(-c2ccc3ncnc(Nc4ccc(OCc5cccc(F)c5)c(Cl)c4)c3c2)o1 [Lapatinib]; details: max 10 µM
How it was run: as §1

| Cell Line | IC50, cell viability 72 h (Olaparib) [µM] | IC50, cell viability 72 h (Selumetinib) [µM] | IC50, cell viability 72 h (AZD2811) [µM] | IC50, cell viability 72 h (SG3199) [µM] | IC50, cell viability 72 h (Trametinib) [µM] | IC50, cell viability 72 h (Palbociclib) [µM] | IC50, cell viability 72 h (Doxorubicin) [µM] | IC50, cell viability 72 h (Taselisib) [µM] | IC50, cell viability 72 h (AZD6738) [µM] | IC50, cell viability 72 h (AZD0156) [µM] | IC50, cell viability 72 h (Prexasertib) [µM] | IC50, cell viability 72 h (Venetoclax) [µM] | IC50, cell viability 72 h (AZD4320) [µM] | IC50, cell viability 72 h (AZD5991) [µM] | IC50, cell viability 72 h (MK-2206) [µM] | IC50, cell viability 72 h (SN-38) [µM] | IC50, cell viability 72 h (AZD1775) [µM] | IC50, cell viability 72 h (Dasatinib) [µM] | IC50, cell viability 72 h (Alisertib) [µM] | IC50, cell viability 72 h (AZD1390) [µM] | IC50, cell viability 72 h (Crizotinib) [µM] | IC50, cell viability 72 h (AZD5153) [µM] | IC50, cell viability 72 h (Capivasertib) [µM] | IC50, cell viability 72 h (Savolitinib) [µM] | IC50, cell viability 72 h (AZD7648) [µM] | IC50, cell viability 72 h (AZD8186) [µM] | IC50, cell viability 72 h (Gefitinib) [µM] | IC50, cell viability 72 h (Lapatinib) [µM] |
| --- | --- | --- | --- | --- | --- | --- | --- | --- | --- | --- | --- | --- | --- | --- | --- | --- | --- | --- | --- | --- | --- | --- | --- | --- | --- | --- | --- | --- |
| B-CPAP (Thyroid Gland Carcinoma) | > 10 | > 10 | > 1 | > 0.001 | > 1 | > 10 | 0.608 | > 10 | > 10 | > 3 | 0.149 | > 1 | > 1 | > 1 | > 10 | 0.025 | 1.42 | 0.324 | 6.62 | > 0.3 | > 10 | 0.379 | > 10 | > 1 | > 10 | > 3 | > 10 | > 10 |
| Daoy (Other Solid Carcinomas) | > 10 | > 10 | > 1 | > 0.001 | > 1 | > 10 | 0.141 | 4.73 | 3.18 | > 3 | 0.0467 | > 1 | > 1 | > 1 |  | 0.00444 | 0.398 | > 2 | 0.818 | > 0.3 | > 10 | 0.489 | > 10 | > 1 | > 10 | > 3 | > 10 | > 10 |
| EC-GI-10 (Esophageal Squamous Cell Carcinoma) | > 10 | > 10 | > 1 | > 0.001 | 0.283 | > 10 | > 1 | 0.496 | 8.22 | > 3 | 0.171 | > 1 | > 1 | > 1 |  | 0.0174 | 0.516 | > 2 | 9.24 | > 0.3 | > 10 | > 1 | > 10 | > 1 | > 10 | > 3 | 3.7 | 0.77 |
| ES4 (Ewing's Sarcoma) | > 10 | > 10 | > 1 | > 0.001 | > 1 | > 10 | 0.431 | 3.24 | 2.03 | > 3 | 0.0243 | > 1 | > 1 | > 1 |  | 0.00883 | > 3 | > 2 | > 10 | > 0.3 | > 10 | 0.246 | > 10 | > 1 | > 10 | > 3 | > 10 | > 10 |
